From patent US12496327B2, “Methods and compositions for restoring STMN2 levels” (President and Fellows of Harvard College, priority 2019, dated 2025)
Where a SMILES comes first, the peptide text is derived from it. The star is where a group is joined. Cbz = O=C(OCc1ccccc1)*

How the values were obtained:
STMN2 cryptic exon = assay: RT-PCR detection of STMN2 cryptic exon in hMNs; assay type: cell-based, human; details: hMNs treated with proteasome inhibitor
Description: TDP-43 plays an important role in the nucleus regulating RNA splicing, and recent studies highlight its ability to suppress non-conserved or cryptic exons to maintain intron integrity (80). When cryptic exons are included in RNA transcripts, in many cases, their inclusion can affect normal levels of the gene product by disrupting its translation or by promoting nonsense-mediated decay (80). […] The sequencing data was examined for evidence of cryptic exons in genes observed to be reproducibly regulated by TDP-43 in human cancer cells (81). […] To accomplish this goal, an RT-PCR assay was developed to detect transcripts containing the cryptic exon (FIG. 5F). […] Total RNA was isolated from neurons using RNeasy Mini Kit (Qiagen) according to manufacturer's instructions. A total of 300-1000 ng of total RNA was used to synthesize cDNA by reverse transcription according to the iSCRIPT kit (Bio-rad). RT-PCR was then performed using one cryptic exon-specific primer and then analyzed using the Agilent 2200 Tapestation.

STMN2 transcript = assay: qRT-PCR analysis of STMN2 expression in hMNs; assay type: cell-based, human; details: either a short-term high dose or a long-term low dose, both cases
Method: Total RNA was isolated from d10 MNs for RNA-Seq experiments and validation assays using Trizol LS (Invitrogen) according to manufacturer's instructions. 500 μL were added per well of the 24-well cultures. A total of 300-1000 ng of total RNA was used to synthesize cDNA by reverse transcription according to the iSCRIPT kit (Bio-rad). Quantitative RT-PCR (qRT-PCR) was then performed using SYBR green (Bio-Rad) and the iCycler system (Bio-rad). Quantitative levels for all genes assayed were normalized using GAPDH expression. […] All primer sequences are available upon request. For next-generation RNA sequencing (RNA-Seq), at least two technical replicas per siRNA sample or AAVS1-TDP43 genotype were included in the analyses. After RNA extraction, samples with RNA integrity numbers (RIN) above 7.5, determined by a bioAnalyzer, were used for library preparation. In brief, RNA sequencing libraries were generated from ˜250 ng of total RNA using the illumina TruSeq RNA kit v2, according to the manufacturer's directions. Libraries were sequenced at the Harvard Bauer Core Sequencing facility on a HiSeq 2000 platform. All FASTQ files were analyzed using the bcbioRNASeq workflow and toolchain (90). The FASTQ files were aligned to the GRCh37/hg19 reference genome. Differential expression testing was performed using DESeq2 suite of bioinformatics tools (38). […]

proteasome = assay: Proteasome activity assay (luciferase substrate) in neurons treated with MG-132; assay type: cell-based, human
Description: (§1) N=6 separate wells of neurons. (Unpaired t test, P value <0.05). […] N=triplicate wells. Cells are viable after 1 day of treatment at all the concentrations tested and lower concentrations are tolerated for more extended periods of time. […] N=4 separate wells of neurons (Unpaired t test, P value <0.05).
(§2) A previous study established that proteasome inhibition in hMNs could trigger accumulation of mutant SOD-1 (31). It was, therefore, examined whether MG-132-mediated proteasome inhibition affected TDP-43 localization in hMNs as a potential model of sporadic ALS. First, the range and timing of small molecule treatment that could inhibit the proteasome without inducing overt cellular toxicity was established (FIGS. 14A-14D). […] Then a pulse-chase experiment was performed to determine the consequences of proteasome inhibition on TDP-43 localization (FIG. 5A). […] Thus, proteasome inhibition in hMNs induces a TDP-43 mislocalization that is reversible.

TDP-43 [1] = assay: Immunoblot of TDP-43 in detergent-soluble (RIPA) and detergent-insoluble (UREA) fractions; assay type: cell-based, human
Method: To determine what happened to TDP-43 after proteasome inhibition, TDP-43 levels were examined by immunoblot analysis in both the detergent-soluble and detergent-insoluble fractions. […] Finally, STMN2 levels in neurons treated with either a short-term high dose or a long-term low dose of MG-132 were probed.
For analysis of TDP-43 and STMN2 protein expression levels, d10 MNs were lysed in RIPA buffer (150 mM Sodium Chloride; 1% Triton X-100; 0.5% sodium deoxycholate; 0.1% SDS; 50 mM Tris pH 8.0) containing protease and phosphatase inhibitors (Roche) for 20 min on ice, and centrifuged at high speed. 200 μL of RIPA buffer per well of 24-well culture were routinely used, which yielded ˜20 μg of total protein as determined by BCA (Thermo Scientific). After two washes with RIPA buffer, insoluble pellets were resuspended in 200 μl of UREA buffer (Bio-Rad). For immunoblot assays 2-3 μg of total protein were separated by SDS-PAGE (BioRad), transferred to PDVF membranes (BioRad) and probed with antibodies against TDP-43 (1:1000, ProteinTech Group), GAPDH (1:1000, Millipore) and STMN2 (1:3000, Novus). Insoluble pellets were loaded based on protein concentration of correspondent RIPA-soluble counterparts. […] GAPDH levels were used to normalized each sample, and LiCor software was used to quantitate protein band signal.

STMN2 mRNA = STMN2 mRNA expression in HUES3, IG2 and CN7 cell lines stressed with MG132; assay type: cell-based, human
Method: Three cell lines, HUES3, IG2 (Stmn2 KO), and CN7 (cryptic exon deletion) were treated with normal media or media+1 uM MG132 for 24 hours to stress the cells. In HUES3 cells, the stressed condition had 52% STMN2 mRNA expression compared to the unstressed condition. In IG2 (Stmn2 KO) condition, unstressed cells had 13% expression, and when stressed, expression increased to 42%. […] It was shown that if several exons are knocked out the expression goes down, but if the TDP-43 binding site is removed, expression goes way up.

TDP-43 [2] = assay: TDP-43 localization by immunostaining, Pearson's correlation with DAPI; assay type: cell-based, human
Method: as §2
For immunofluorescence, cells were fixed with ice-cold 4% PFA for 15 minutes at 4° C., permeabilized with 0.2% Triton-X in 1×PBS for 45 minutes and blocked with 10% donkey serum in 1×PBS-T (0.1% Tween-20) for 1 hour. Cells were then incubated overnight at 4° C. with primary antibody (diluted in blocking solution). At least 4 washes (5 min incubation each) with 1×PBS-T were carried out, before incubating the cells with secondary antibodies for 1 hour at room temperature (diluted in blocking solution). Nuclei were stained with DAPI. […] Micrographs were analyzed using FIJI software to determine the correlation coefficient.

motor neurons = assay: Cell Titer Glo neuronal survival assay; assay type: cell-based, human
Description: as §1, §2

hMNs = assay: Neurite outgrowth assay (Sholl analysis) of hMNs; assay type: cell-based, human; details: STMN2+/+ hMNs, 10 μM
Method: Given the reported role of STMN2 in regulating axonal growth by promoting the dynamic instability of microtubules (77), phenotypic assays were carried out characterizing neurite outgrowth in the STMN2−/− hMNs. After 7 days in culture, sorted hMNs were fixed and stained for β-III-tubulin to label the neuronal processes (FIG. 4E).
Individual Tuj1-positive neurons used for Sholl analyses were randomly selected and imaged using a Nikon Eclipse TE300 with a 40× objective. The neurites were traced using the ImageJ (NIH) plugin NeuronJ (78), and Sholl analysis was performed using the Sholl tool of Fiji (96), quantifying the number of intersections at 10-μm intervals from the cell body. Statistical analysis was performed by comparing the number of intersections of KO clones with the parental WT line for each 10-μm interval using Prism 6 (Graph Pad, La Jolla, CA, USA). Significance was assessed by a standard Student's t-test, with a p value of p<0.05 considered as significant.

STMN2 transcripts = assay: ASO effect on STMN2 cryptic exon and full length transcripts during TDP-43 depletion; assay type: cell-based

CC(C)C[C@H](NC(=O)[C@H](Cc1ccccc1)NC(=O)c1cnccn1)B(O)O [Bortezomib]
transcripts containing the STMN2 cryptic exon (PCR product) (STMN2 cryptic exon): presence of transcripts containing the STMN2 cryptic exon

CC(C)C[C@@H](C=O)NC(=O)[C@H](CC(C)C)NC(=O)[C@H](CC(C)C)NC(=O)OCc1ccccc1 [MG-132] (Cbz-Leu-Leu-Leu-aldehyde)
STMN2 mRNA levels (STMN2 transcript): significant decreases
proteasome activity (proteasome; neurons treated with MG-132, N=4 wells (FIG. 14E)): significantly decreased proteasome activity
proteasome activity (proteasome; overnight 1 μM treatment of hMNs): less than 10 % of normal activity
TDP-43 levels in soluble lysates (TDP-43 [1]; control neurons, low dose, detergent-soluble (RIPA) fraction): significantly decreased
TDP-43 in UREA (insoluble) fraction (TDP-43 [1]; detergent-insoluble fraction): become insoluble
STMN2 mRNA expression (STMN2 mRNA; CN7 (Cryptic Exon Deletion) cells, 1 uM for 24 hours (stressed)): 473%
STMN2 mRNA expression (STMN2 mRNA; HUES3 cells, 1 uM for 24 hours, compared to the unstressed condition): 52%
STMN2 mRNA expression (STMN2 mRNA; IG2 (Stmn2 KO) cells, 1 uM for 24 hours (stressed)): 42%
transcripts containing the STMN2 cryptic exon (PCR product) (STMN2 cryptic exon): presence of transcripts containing the STMN2 cryptic exon
TDP-43 staining following washout (TDP-43 [2]; 4 days after washout of 24 hour 1 μM pulse): indistinguishable to unchallenged neurons
TDP-43 staining in the nucleus (TDP-43 [2]; after 24 hour 1 μM pulse): greatly diminished
cell viability (neuronal survival) (motor neurons; 1 day of treatment, all concentrations tested (FIG. 14D)): viable
tolerance of neurons to treatment without overt cellular toxicity (motor neurons; overnight 1 μM treatment): could withstand

C[C@@H](N)[C@H]1CC[C@H](C(=O)Nc2ccncc2)CC1 [Y-27632]
neurite outgrowth (hMNs): enhancing the outgrowth

TCTTCAGTATTGCTATTCAT (2'-MOE nucleotides, further chemistry not given here) [ASO (SEQ ID NO: 11), antisense oligonucleotide targeting the abortive or altered STMN2 RNA]
ability to decrease the abundance of cryptic exon containing transcripts (STMN2 transcripts; 2.5 μM (FIG. 69A)): effectiveness
ability to increase the abundance of full length STMN2 transcripts (STMN2 transcripts; 2.5 μM, during TDP-43 depletion (FIG. 69B)): effectiveness
